According to PMC11496081, “The diversity of AMPA receptor inhibition mechanisms among amidine-containing compounds” (Frontiers in Pharmacology, 2024):
“And” between values parts separate entries of the source, which are not always exact repeats. Identical values can stand only once. Like-named read-outs stand apart in the source and are kept apart here.

Tests used:
[1] = target: T1, calcium-impermeable AMPA receptors (CI-AMPARs) (Rattus norvegicus, UniProt P19490+P19491, Q607R); assay: Whole-cell patch clamp, kainate-induced currents in hippocampal CA1 pyramidal neurons; assay type: cell-based; details: for δb CI-AMPAR: fixed δb values obtained from the CP-AMPARs data; for inhibition at 200 µM: furamidine 50 µM
T1 sequence (P19491 22-883 Q607R): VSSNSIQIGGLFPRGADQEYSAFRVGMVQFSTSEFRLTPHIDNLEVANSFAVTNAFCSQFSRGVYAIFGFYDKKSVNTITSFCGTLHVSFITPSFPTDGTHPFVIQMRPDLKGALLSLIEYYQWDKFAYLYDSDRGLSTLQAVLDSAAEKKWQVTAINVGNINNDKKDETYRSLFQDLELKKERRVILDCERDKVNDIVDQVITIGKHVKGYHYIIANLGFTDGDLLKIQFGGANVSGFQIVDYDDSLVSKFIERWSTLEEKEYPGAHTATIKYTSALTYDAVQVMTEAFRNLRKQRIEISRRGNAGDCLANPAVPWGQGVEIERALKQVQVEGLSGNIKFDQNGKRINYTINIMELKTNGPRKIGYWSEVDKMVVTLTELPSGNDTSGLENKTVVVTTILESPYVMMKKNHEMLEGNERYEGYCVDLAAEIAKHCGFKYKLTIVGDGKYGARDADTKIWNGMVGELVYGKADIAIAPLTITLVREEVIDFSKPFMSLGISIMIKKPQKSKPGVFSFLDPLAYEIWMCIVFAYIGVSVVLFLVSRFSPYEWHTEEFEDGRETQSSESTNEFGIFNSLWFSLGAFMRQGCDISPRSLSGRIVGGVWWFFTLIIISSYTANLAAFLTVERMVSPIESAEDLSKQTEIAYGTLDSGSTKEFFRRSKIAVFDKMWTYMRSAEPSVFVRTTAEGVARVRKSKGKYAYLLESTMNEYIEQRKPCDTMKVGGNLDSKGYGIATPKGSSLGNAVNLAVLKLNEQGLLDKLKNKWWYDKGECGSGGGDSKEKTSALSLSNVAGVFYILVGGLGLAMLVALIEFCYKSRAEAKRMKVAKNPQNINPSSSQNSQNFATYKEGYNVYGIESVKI
T1 sequence (P19490 19-907): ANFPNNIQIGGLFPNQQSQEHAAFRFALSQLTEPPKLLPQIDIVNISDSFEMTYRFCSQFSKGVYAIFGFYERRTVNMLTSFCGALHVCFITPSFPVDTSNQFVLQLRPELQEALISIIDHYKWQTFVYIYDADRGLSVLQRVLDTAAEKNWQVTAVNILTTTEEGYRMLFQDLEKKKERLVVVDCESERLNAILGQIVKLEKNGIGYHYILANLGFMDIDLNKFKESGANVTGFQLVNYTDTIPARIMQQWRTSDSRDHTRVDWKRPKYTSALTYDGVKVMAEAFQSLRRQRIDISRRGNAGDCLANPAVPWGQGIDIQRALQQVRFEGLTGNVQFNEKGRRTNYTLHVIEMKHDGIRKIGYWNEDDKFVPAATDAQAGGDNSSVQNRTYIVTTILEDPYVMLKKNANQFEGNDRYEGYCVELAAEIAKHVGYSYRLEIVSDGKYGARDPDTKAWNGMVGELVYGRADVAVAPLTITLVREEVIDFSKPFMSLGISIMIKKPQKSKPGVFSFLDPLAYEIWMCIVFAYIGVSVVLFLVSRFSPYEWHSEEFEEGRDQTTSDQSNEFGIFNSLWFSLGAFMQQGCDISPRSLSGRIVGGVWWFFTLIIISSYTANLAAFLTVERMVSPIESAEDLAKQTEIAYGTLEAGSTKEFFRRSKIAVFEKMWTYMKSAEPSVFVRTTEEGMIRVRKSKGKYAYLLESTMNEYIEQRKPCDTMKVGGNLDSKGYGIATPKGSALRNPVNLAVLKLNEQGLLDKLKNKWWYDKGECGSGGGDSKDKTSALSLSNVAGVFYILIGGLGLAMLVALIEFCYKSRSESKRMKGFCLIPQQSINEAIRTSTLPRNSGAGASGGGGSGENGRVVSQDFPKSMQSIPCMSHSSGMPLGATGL
Description: (§1) The rats were anesthetised with sevoflurane and then decapitated. […] All experiments were performed at room temperature.
(§2) Pentamidine isethionate (P-155) was from Alomone laboratories.
(§3) The voltage dependence of compounds action was analysed by Woodhull model for permeable blockers ([Woodhull, 1973]; [Tikhonova et al., 2008]). According to this model, the voltage dependence of steady-state blockade is given by Equation 1: BV=100%−100%/1+C/KbexpF/RT zδb V+Kp exp−F/RT zδp V (1) where V is voltage, B is level of block (%), C is concentration of the drug, z is molecular charge, and R, F and T have their standard meanings. Kb is the affinity of a drug for the channel. The δb value reflects the fraction of membrane electric field that the charged blocking molecule crosses on its pathway between the external media and the binding site in the channel (where the total field has a value of 1). Parameters Kp and δp describe permeation through the channel. […] For this reason, we used Equation 2, which takes into account the possibility of inhibitor to bind also at superficial site ([Nikolaev and Tikhonov, 2023]), assuming that the binding to the deep and superficial site is independent. BV=100%−100%/1+C/KbexpF/RT zδb V+Kp exp−F/RT zδp V+C/Kvin+C^2/Kvin KbexpF/RT zδb V+Kp exp−F/RT zδp V (2)
(§4) All experimental data are presented as the mean ± SD estimated from at least four experiments (cells). Significance of the effects was tested with t-tests. Differences were considered significant at p < 0.05. Concentration dependencies were approximated by Hill equation. Voltage dependencies were approximated by Equation 1 or 2. […] Then all data was pooled together and the parameters of voltage dependence were estimated using the fitting of all measurements. For each holding potential ≥4 cells were used. Voltage dependence parameters (binding constants and δb values) are shown as the result of the fitting ± approximation errors.

[2] = target: T1, calcium-impermeable AMPA receptors (CI-AMPARs); assay: Whole-cell patch clamp, glutamate-induced currents in hippocampal CA1 pyramidal neurons
Description: The rats were anesthetised with sevoflurane and then decapitated. The brains were brought out quickly and cooled to 2°C–4°C. Transverse striatal or hippocampal slices were cut using a vibratome (Campden Instruments) and stored in a solution containing (in mM): NaCl 124, KCl 5, CaCl2 1.3, MgCl2 2.0, NaHCO3 26, NaH2PO4 1.24, D-glucose 10, aerated with carbogen (95% O2, 5% CO2). All experiments were performed at room temperature.
Vibrodissociation method ([Vorobjev, 1991]; [Jun et al., 2011]) was used to free CA1 pyramidal neurons or giant striatal interneurons from slices. This method allows isolating cells without enzymatic treatment and keep them in more native state. […] The antagonism of CI-AMPARs was studied on pyramidal neurons from the CA1 area of the hippocampus. These cells were isolated from the stratum pyramidale and distinguished from non-pyramidal cells on the basis of pyramidal-like somata and preserved apical dendrites.
To record membrane currents in response to applications of kainate or glutamate the whole-cell configuration of patch clamp technique was used. Series resistance (<20 MΩ) was compensated by 70%–80% and monitored during experiments. […]
AMPA receptors were activated with 100 µM kainate or 1 mM glutamate unless otherwise stated. […] The effects of compounds on steady-state currents for different drug concentrations were measured at −80 mV holding voltages. […]

[3] = test system: calcium-permeable AMPA receptors (CP-AMPARs); assay: Whole-cell patch clamp, block of kainate-induced currents in striatal giant interneurons; assay type: cell-based, rat
Description: as §1, §2, §3, §4

[4] = test system: NMDA receptors; parameters: method as in Zhigulin and Barygin, 2023; details: ref Zhigulin and Barygin, 2023, cited from earlier work; for δb NMDAR / Kb: channel site; for Kb: read-out: Kb, μM NMDAR; for Kd: superficial site, read-out: Kvin, μM NMDAR; for IC50: read-out: IC50 at -80mV, μM NMDAR
[5] = test system: calcium-permeable AMPA receptors (CP-AMPARs); parameters: method as in Zhigulin et al., 2022; details: −80 mV, ref Zhigulin et al., 2022, cited from earlier work
[6] = target: T1, calcium-impermeable AMPA receptors (CI-AMPARs); parameters: method as in Zhigulin et al., 2022; details: 100 µM compound, −80 mV; ref Zhigulin et al., 2022; cited from earlier work
[7] = 100 µM compound, kainate-induced current, −80 mV
[8] = voltage dependence −140 to +40 mV fitted by eq. 1
[9] = kainate-induced current, −80 mV; read-out: IC50, µM CP-AMPARs
[10] = voltage dependence fitted by eq. 1; read-out: Kb, µM CP-AMPARs (binding to channel site)
[11] = −80 mV; IEM-1925 1 µM, pentamidine 50 μM

Row | Compound | Block at 100 µM, % CP-AMPARs [3, 7] | δb CP-AMPARs (fraction of membrane electric field to channel site) [3, 8] | δb CI-AMPAR [1] | δb NMDAR [4] | Kb [4] [µM] | Kd [4] [µM] | IC50 ([4]; −80 mV) [µM] | IC50 [3, 9] [µM] | Kb [3, 10] [µM] | further results
1 | NS(=O)(=O)c1cc2c(cc1Cl)NC(C1CC3C=CC1C3)NS2(=O)=O (stereo not drawn) [cyclothiazide] | – | – | – | – | – | – | – | – | – | fold induction at 100 µM ([1]; read-out: increase in current at 50 µM kainate): 8 ± 2; fold induction at 100 µM ([1]; read-out: potentiation of responses evoked by 100 µM kainate): 6 ± 3; fold induction at 100 µM ([2]; read-out: enhancement of glutamate-induced currents): 12 ± 3
2 | N=C(N)c1ccc(-c2ccc(-c3ccc(C(=N)N)cc3)o2)cc1 [Furamidine] | 79 ± 7 (n=4) % | 0.72 ± 0.15 and 0.7 | 0.7 | 0.55 | 22 | 3.3 | 0.64 | – | – | Block at 100 µM, % CP-AMPARs ([3]; 100 µM compound, kainate-induced current, −80 mV; listed as furamidine): 75–80%; IC50 ([3]; read-out: IC50, µM CP-AMPARs; kainate-induced current, −80 mV): 38 µM; Kb ([3]; read-out: Kb, µM CP-AMPARs (binding to channel site); voltage dependence fitted by eq. 1): 15 µM; δb CP-AMPARs (fraction of membrane electric field to channel site) ([3]; voltage dependence −140 to +40 mV fitted by eq. 1; listed as furamidine): around 0.7
3 | CN(C)C(=O)COC(=O)Cc1ccc(OC(=O)c2ccc(NC(=N)N)cc2)cc1 [Camostat] | 16 ± 4 (n=4) % | – | – | – | – | – | > 100 | > 100 | – | Block at 100 µM, % CP-AMPARs ([3]; 100 µM compound, kainate-induced current, −80 mV; listed as camostat): < 50%; IC50 at -80mV, μM NMDAR ([4]; −80 mV): ineffective
4 | CCOC(=O)c1ccc(OC(=O)CCCCCNC(=N)N)cc1 [Gabexate] | 30 ± 4 (n=4) % | – | – | 0.55 | 800 | 25 | 16 | > 100 | – | –
5 | N=C(N)c1ccc(/N=N/Nc2ccc(C(=N)N)cc2)cc1 [Diminazene] | – | 0.64 ± 0.05 and 0.65 | 0.65 | 0.55 | 1500 | 14 | 13 | – | 47 ± 5 | δb CP-AMPARs (fraction of membrane electric field to channel site) ([3]; voltage dependence −140 to +40 mV fitted by eq. 1; listed as diminazene): around 0.7; Block at 100 µM, % CP-AMPARs ([5]; 100 µM compound): 69 ± 4 %; IC50 [5]: 60 ± 11 µM; Block at 100 µM, % CI-AMPARs [6]: 31 ± 7 %
6 | N=C(N)c1ccc(-c2cc3ccc(C(=N)N)cc3[nH]2)cc1 [DAPI, 4′,6-diamidino-2-phenylindole] | 83 ± 4 (n=4) % | – | 0.65 | 0.55 | 5000 | 3.2 | 3.1 | 27 ± 1 | 5.4 ± 1.2 | Block at 100 µM, % CI-AMPARs [1, 7]: 64 ± 5 (n=6) %; Kb ([1]; fitted by eq. 2 with fixed δb values from CP-AMPARs data, read-out: Kb, µM CI-AMPARs (binding to channel site)): 24 ± 7 µM; Kd ([1]; fitted by eq. 2 with fixed δb values from CP-AMPARs data, read-out: Kvin, µM CI-AMPARs (binding to superficial site)): 62 ± 6 µM; IC50 ([1]; kainate-induced current, −80 mV): 59 ± 9 µM
7 | N=C(N)c1ccc(OCCCCCOc2ccc(C(=N)N)cc2)cc1 [Pentamidine] | 70 ± 4 (n=4) % | 0.49 ± 0.04 and 0.5 | 0.5 | 0.7 | 27 | 10 | 0.41 | 43 ± 9 | 36 ± 4 | washout kinetics τ of perampanel and pentamidine mixture ([3]; 100 nM perampanel + 500 µM pentamidine, in presence of kainate): 620 ± 470 ms; block of CP-AMPARs at +40 mV ([3]; 100 μM, +40 mV, representative example): 27%; block of CP-AMPARs at −40 mV ([3]; 100 μM, −40 mV, representative example): 78%; rectification index (current ratio between +40 mV and −40 mV) ([3]; 10 mM in pipette solution, kainate-induced responses): 0.10 ± 0.04; washout kinetics τ, CP-AMPARs ([3]; in presence of kainate): 120 ± 60 ms; inhibition at 100 µM ([1]; read-out: Block at 100 µM, % CI-AMPARs, 100 µM compound, kainate-induced current, −80 mV): 39 ± 5%; inhibition at 200 µM ([1]; read-out: block of CI-AMPARs with 50 µM kainate, −80 mV, pentamidine 200 µM, no cyclothiazide): 38%; inhibition at 200 µM ([1]; read-out: block of CI-AMPARs with 500 µM kainate, −80 mV, pentamidine 200 μM): 61%; remaining activity at 100 µM ([2]; read-out: Idrug/Icontrol, glutamate-induced steady-state current): 140 ± 10%
8 | N#Cc1ccccc1-c1cc(-c2ccccn2)cn(-c2ccccc2)c1=O [perampanel] | – | – | – | – | – | – | – | – | – | inhibition of CP-AMPARs in presence of kainate ([3]; 100 nM perampanel): 50%–70%; inhibition at 0.1 µM ([1]; read-out: inhibition of kainate-induced CI-AMPAR currents in absence of cyclothiazide, 100 nM perampanel): 74%
9 | IEM-1925 | – | – | – | – | – | – | – | – | – | inhibition of CP-AMPARs with 50 µM kainate [3, 11]: 40% ± 3%; inhibition of CP-AMPARs with 500 µM kainate [3, 11]: 48% ± 5%
10 | N=C(N)c1ccc2cc(OC(=O)c3ccc(N=C(N)N)cc3)ccc2c1 [Nafamostat] | 60 ± 11 (n=4) % | 0.76 ± 0.16 and 0.75 | 0.75 | 0.55 | 11 | 3 | 0.2 | 55 ± 24 | 9 ± 4 | IC50 ([3]; kainate-induced current, −80 mV; listed as nafamostat; read-out: IC50, µM CP-AMPARs): ~55 µM; Kb ([3]; voltage dependence fitted by eq. 1; listed as nafamostat; read-out: Kb, µM CP-AMPARs (binding to channel site)): 5 to 10 µM; δb CP-AMPARs (fraction of membrane electric field to channel site) ([3]; voltage dependence −140 to +40 mV fitted by eq. 1; listed as nafamostat): around 0.7
11 | N=C(N)c1ccc2cc(OC(=O)c3ccc(NC4=NCCN4)cc3)ccc2c1 [Sepimostat] | 66 ± 5 (n=4) % | 0.88 ± 0.12 and 0.9 | 0.9 | 0.55 | 102 | 7 | 3.5 | 56 ± 6 | 71 ± 9 | inhibition remaining in trapping protocol after 10 s without kainate ([3]; 300 µM sepimostat): 21% ± 2%; recovery (washout) kinetics τ, CP-AMPARs ([3]; in presence of kainate): 1.5 ± 0.3 s; IC50 ([3]; kainate-induced current, −80 mV; listed as sepimostat; read-out: IC50, µM CP-AMPARs): ~55 µM; δb CP-AMPARs (fraction of membrane electric field to channel site) ([3]; voltage dependence −140 to +40 mV fitted by eq. 1; listed as sepimostat): ~0.9; inhibition at 100 µM ([1]; 100 µM compound, kainate-induced current, −80 mV, read-out: Block at 100 µM, % CI-AMPARs): 37 ± 3%
